Test results published in patent US5889013A, “Pyrimidine acyclonucleoside derivatives” (priority 1994, dated 1999).
Where two headings read alike, the source gives them in different places.

Key:
HIV-1 (HTLV-IIIB strain) = assay: Inhibitory activity for HIV-induced cytopathogenicity (MT-4 cells, MTT method); assay type: cell-based; settings: read-out: 50% inhibitory concentration of HIV infection
Protocol: (§1) In RPMI 1640 culture medium supplemented with 10% heat-inactivated fetal bovine serum, 2 mM of L-glutamine, 100 U/mL of penicillin G and 100 μg/mL of streptomycin, MT-4 cells (HTLV-1 transformed T4-cell line) at a concentration of 1×10^4 /well in a flat-bottom, microtiter plate were infected with 500 TCID50 of HIV-1 (HTLV-IIIB strain). Immediately after virus infection, sample serially diluted with culture medium from stock solution prepared in dimethyl sulfoxide was added to each well in quadriplicate. After 6 days incubation at 37° C., the viability of mock and HIV-infected cells was determined by the 3-(4,5-dimethylthiazol-2-yl)-2,5-diphenyltetrazolium bromide (MTT) method. And also, the cytotoxicity of sample to MT-4 cells not infected with HIV was assessed in parallel with its antiviral activity under the same way as above.

[1] = Cytotoxicity to MT-4 cells not infected with HIV (MTT method); assay type: cell-based; settings: human
Protocol: as §1

[2] = system: human immunodeficiency virus (HIV); settings: cited from earlier work; for side effects: patients, clinical use
[3] = Human immunodeficiency virus 1, IIIB, MT4, 144 h
[4] = MT-4 cells not infected with HIV, 6 days, 37° C., MTT, read-out: 50% cytotoxic concentration to MT-4 cells

| Compound | IC50 (HIV-1 (HTLV-IIIB strain); [3]) [µM] | CC50 at 144 h [1, 4] [µM] | clinical and immunological status of patients ([2]; patients with AIDS and AIDS-related complex) | side effects [2] | IC50 (HIV-1 (HTLV-IIIB strain); Human immunodeficiency virus 1, MT4, 144 h, MT-4 cells infected with 500 TCID50 HIV-1 (HTLV-IIIB strain), 6 days, 37° C., MTT) [µM] | CC50 at 144 h ([1]; mt-4 cells) [µM] |
| --- | --- | --- | --- | --- | --- | --- |
| Cc1cn([C@H]2C[C@H](N=[N+]=[N-])[C@@H](CO)O2)c(=O)[nH]c1=O [AZT, 3'-Deoxy-3'-azidothymidine, reference compound] | 0.0046 | 22.7 | proven to improve the clinical and immunological status of patients with AIDS and AIDS-related complex | serious side effects such as anemia and leukopenia |  |  |
| CCCCn1c([Se]c2cc(C)cc(C)c2)c(C(C)C)c(=O)[nH]c1=O [Compound 83, 1-butyl-6-[(3,5-dimethylphenyl)selenenyl]-5-isopropyluracil] | 0.002 | 28.2 |  |  |  |  |
| CC(C)c1c([Se]c2ccccc2)n(CCCc2ccccc2)c(=O)[nH]c1=O [Compound 84, 5-isopropyl-1-(3-phenylpropyl)-6-(phenylselenenyl)uracil] | 0.008 | 28 |  |  |  |  |
| Cc1cc(C)cc([Se]c2c(C(C)C)c(=O)[nH]c(=O)n2CCCc2ccccc2)c1 [Compound 86, 6-[(3,5-dimethylphenyl)selenenyl]-5-isopropyl-1-(3-phenylpropyl)-uracil] | 0.0006 | 26.9 |  |  |  |  |
| Nc1ccn([C@H]2CC[C@@H](CO)O2)c(=O)n1 [DDC, 2',3'-dideoxycytidine, reference compound] |  |  |  | side effects such as peripheral neuropathy and pancreatitis | 0.6 | 17.6 |
| O=c1[nH]cnc2c1ncn2[C@H]1CC[C@@H](CO)O1 [DDI, 2',3'-dideoxyinosine] |  |  |  | side effects such as peripheral neuropathy and pancreatitis |  |  |
